The values below come from patent US12221453B2, “Substituted pyrazolo[5′,1′:2,3]pyrimido[5,4-b][1,4]oxazines as TYK2 inhibitors” (TAKEDA PHARMACEUTICAL COMPANY LIMITED, priority 2018, dated 2025).

This test relates to IL-12 induced STAT4 phosphorylation mediated by TYK2/JAK2. In words: IL-12 induced pSTAT4 in human PBMC. Type of test: cell-based. Conditions: 1 hr compound, 1.7 ng/mL IL-12 for 30 minutes. The essentials: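 Thawed human PBMC were pre-incubated with compound for 1 hr at 37 °C (0.1% DMSO), then stimulated with 1.7 ng/mL IL-12 for 30 minutes. Phospho-STAT4 and total STAT4 were measured in cell lysates by MSD.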
The IC50 is the midpoint of a concentration-inhibition curve. Low readings indicate higher potency, high ones lower potency. In turn, `CNc1cc(Nc2cccn(C3CCOCC3)c2=O)nc2c(C(=O)NC3CC[C@H]3F)cnn12` (stereo partly shown) [Compound I-191] returned an IC50 of less than 0.1 µM.

Take `CNc1cc(-c2cn([C@@H]3CCOC3)c3ncccc23)nc2c(C(=O)NC3CC[C@@H]3OC)cnn12` (stereo partly shown) [Compound I-609]: the IC50 is less than 0.1 µM.

Compound `CNc1cc(-c2cn([C@@H]3CCC4(C3)OCCO4)c3ncccc23)nc2c(C(=O)NC3CC[C@@H]3OC)cnn12` (stereo partly shown) [Compound I-672] gave an IC50 of less than 0.1 µM.

For the compound `CNc1cc(Nc2cccn([C@H]3C[C@H](F)C3)c2=O)nc2c(C(=O)N[C@@H]3CCC3(F)F)cnn12` [Compound I-285], the half-maximal inhibitory concentration (IC50) was less than 0.1 µM.

As to `CNc1cc(-c2cn([C@H]3C[C@@H](O)C3)c3ncccc23)nc2c(C(=O)NC3CC[C@H]3O)cnn12` (stereo partly drawn) [I-111, N-((cis-1,2)-2-Hydroxycyclobutyl)-5-(1-((1s,3R)-3-hydroxycyclobutyl)-1H-pyrrolo[2,3-b]pyridin-3-yl)-7-(methylamino)pyrazolo[1,5-a]pyrimidine-3-carboxamide], the IC50 lay in the range of 0.1 to 0.5 µM.

For `CNc1cc(Nc2cccn([C@H]3CCCOC3)c2=O)nc2c(C(=O)NC3CCC3(F)F)cnn12` (stereo partly shown) [Compound I-312], the IC50 was less than 0.1 µM.

The compound `CNc1cc(Nc2cccn([C@H]3C[C@H](OC)C3)c2=O)nc2c(C(=O)NC3CCC3(F)F)cnn12` (stereo partly shown) [Compound I-292] had a concentration for half-maximal inhibition (IC50) of less than 0.1 µM.

`CNc1cc(Nc2cccn([C@@H]3CCC[C@@H]3O)c2=O)nc2c(C(=O)N[C@@H]3CCC3(F)F)cnn12` [Compound I-305] returned an IC50 of less than 0.1 µM.

`CNc1cc(Nc2cccn([C@H]3CCCOC3)c2=O)nc2c(C(=O)N[C@@H]3CCC3(F)F)cnn12` [Compound I-314] showed a 50% inhibitory concentration (IC50) of less than 0.1 µM.

In the case of `CNc1cc(-c2cnc3n([C@H]4COC[C@@H]4OC)cccc2-3)nc2c(C(=O)NC3CC[C@H]3F)cnn12` (stereo partly shown) [Compound I-838], the IC50 was less than 0.1 µM.

The compound `CNc1cc(-c2cn([C@@H]3CN(C)C[C@H]3F)c3ncccc23)nc2c(C(=O)NC3CC[C@@H]3OC)cnn12` (stereo partly shown) [Compound I-642] displayed an IC50 of less than 0.1 µM.

Turning to `CNc1cc(Nc2cccn([C@H]3CC[C@H](OC)CC3)c2=O)nc2c(C(=O)N[C@@H]3C[C@H]3OC)cnn12` [I-31, 5-((1-((1r,4R)-4-Methoxycyclohexyl)-2-oxo-1,2-dihydropyridin-3-yl)amino)-N-((1R,2R)-2-methoxycyclopropyl)-7-(methylamino)pyrazolo[1,5-a]pyrimidine-3-carboxamide], the IC50 is less than 0.1 µM.

The compound `CNc1cc(-c2cn([C@H]3CCC4(C3)OCCO4)c3ncccc23)nc2c(C(=O)NC3CC[C@@H]3OC)cnn12` (stereo partly shown) [Compound I-671] displayed an IC50 of less than 0.1 µM.

`CNc1cc(Nc2cccn(-c3ocnc3C)c2=O)nc2c(C(=O)NC3CCC3)cnn12` [Compound I-144] gave an IC50 of less than 0.1 µM.

In turn, `CNc1cc(Nc2cccn(-c3ccc(C)nc3)c2=O)nc2c(C(=O)NC3CCC3(F)F)cnn12` (stereo not shown) [Compound I-324] displayed a 50% inhibitory concentration (IC50) of less than 0.1 µM.

In turn, `CO[C@H]1CC[C@@H]1NC(=O)c1cnn2c(N)cc(-c3cnc4n([C@H]5COC[C@@H]5OC)cccc3-4)nc12` [Compound I-1006] returned an IC50 of less than 0.1 µM.

As for `CNc1cc(-c2cnc3n([C@@H]4CN(C)C[C@H]4OC)cccc2-3)nc2c(C(=O)N[C@H]3CC[C@@H]3OC)cnn12` [Compound I-944], the concentration for half-maximal inhibition (IC50) was less than 0.1 µM.

Turning to `CNc1cc(Nc2cccn(C3CCOCC3)c2=O)nc2c(C(=O)N[C@H]3CC[C@]3(C)OC)cnn12` [Compound I-407], the IC50 was less than 0.1 µM.

As for `CNc1cc(-c2cn([C@H]3COC[C@@H]3OC)c3ncccc23)nc2c(C(=O)NC3CC[C@H]3F)cnn12` (stereo partly shown) [Compound I-528], the concentration for half-maximal inhibition (IC50) was less than 0.1 µM.

Take `CNc1cc(Nc2cccn([C@H]3C[C@H](F)C3)c2=O)nc2c(C(=O)N[C@@H]3CC[C@H]3OC)cnn12` [I-57, 5-((1-((1r,3R)-3-Fluorocyclobutyl)-2-oxo-1,2-dihydropyridin-3-yl)amino)-N-((1R,2R)-2-methoxycyclobutyl)-7-(methylamino)pyrazolo[1,5-a]pyrimidine-3-carboxamide]: the concentration for half-maximal inhibition (IC50) is less than 0.1 µM.

Turning to `CNc1cc(-c2cn([C@@H]3CCN(C)C3)c3ncccc23)nc2c(C(=O)NC3CC[C@@H]3OC)cnn12` (stereo partly shown) [Compound I-615], the IC50 is less than 0.1 µM.

Consider `CNc1cc(-c2cn([C@@H]3CN(C)C[C@H]3OC)c3ncccc23)nc2c(C(=O)NC3CC[C@@H]3OC)cnn12` (stereo partly shown) [Compound I-645], for which the IC50 is less than 0.1 µM.

Consider `CC(C)n1cccc(Nc2nc3c(C(=O)NC4CCC4(F)F)cnn3c3c2OCCN3)c1=O` (stereo not shown) [Compound I-765], for which the IC50 is less than 0.1 µM.

Compound `CNc1cc(Nc2cccn([C@H]3C[C@@H]3OC)c2=O)nc2c(C(=O)N[C@H]3CC[C@@H]3F)cnn12` [Compound I-158] had an IC50 of less than 0.1 µM.

The compound `CNc1cc(Nc2cccn([C@@H]3CCC[C@H](C#N)C3)c2=O)nc2c(C(=O)NC3CCC3(F)F)cnn12` (stereo partly shown) [Compound I-327] displayed an IC50 of less than 0.1 µM.

`CNc1cc(-c2cnc3n([C@@H]4CCOC4)cccc2-3)nc2c(C(=O)N[C@H]3CC[C@@H]3OC)cnn12` [Compound I-1004] had a concentration for half-maximal inhibition (IC50) of less than 0.1 µM.

`CNc1cc(-c2cn([C@H]3CC3(F)F)c3ncccc23)nc2c(C(=O)N[C@@H]3COC[C@@H]3O)cnn12` [Compound I-711] displayed an IC50 of less than 0.1 µM.

The compound `CNc1cc(Nc2cccn([C@@H]3C[C@H]3OC)c2=O)nc2c(C(=O)N[C@H]3CC[C@@H]3F)cnn12` [Compound I-155] came in with an IC50 of less than 0.1 µM.

For the compound `CNc1cc(-c2cn([C@@H]3CCOC[C@H]3F)c3ncccc23)nc2c(C(=O)N[C@H]3CC[C@@H]3OC)cnn12` [Compound I-804], the half-maximal inhibitory concentration (IC50) is less than 0.1 µM.

`CNc1cc(-c2cn([C@H]3C[C@@H](COC)C3)c3ncccc23)nc2c(C(=O)NC3CC[C@H]3O)cnn12` (stereo partly shown) [Compound I-912] showed a half-maximal inhibitory concentration (IC50) of less than 0.1 µM.

`CNc1cc(Nc2cccn([C@@H]3CC[C@@H]3O)c2=O)nc2c(C(=O)N[C@H]3CCC3(F)F)cnn12` [Compound I-290] returned an IC50 of less than 0.1 µM.

Consider `CNc1cc(Nc2cccn([C@H]3[C@@H]4COC[C@@H]43)c2=O)nc2c(C(=O)N[C@@H]3CC[C@@H]3F)cnn12` [Compound I-205], for which the concentration for half-maximal inhibition (IC50) is less than 0.1 µM.

With `CNc1cc(-c2cn(C3CCCC3)c3ncccc23)nc2c(C(=O)N[C@H]3CCC3(F)F)cnn12` [Compound I-685], the IC50 is less than 0.1 µM.

As for `CNc1cc(Nc2cccn([C@@H]3CCC[C@@H]3O)c2=O)nc2c(C(=O)NC3CCC3(F)F)cnn12` (stereo partly shown) [Compound I-303], the concentration for half-maximal inhibition (IC50) is less than 0.1 µM.

Turning to `CNc1cc(-c2cn([C@H]3COC[C@@H]3OC)c3ccccc23)nc2c(C(=O)N[C@H]3CC[C@@H]3OC)cnn12` [Compound I-742], the IC50 was less than 0.1 µM.

Compound `CNc1cc(Nc2cccn([C@H]3CC[C@H]3O)c2=O)nc2c(C(=O)N[C@@H]3CC[C@H]3F)cnn12` [Compound I-169] yielded a half-inhibitory concentration (IC50) of less than 0.1 µM.

For the compound `CNc1cc(Nc2cccn([C@@H]3CCCOC3)c2=O)nc2c(C(=O)N[C@@H]3CCC3(F)F)cnn12` [Compound I-317], the IC50 is less than 0.1 µM.

Regarding `CNc1cc(-c2cnc3n([C@@H]4COC[C@H]4OC)cccc2-3)nc2c(C(=O)NC3CC[C@@H]3OC)cnn12` (stereo partly shown) [Compound I-883], the half-inhibitory concentration (IC50) is less than 0.1 µM.

Turning to `CNc1cc(Nc2cccn(C3COC3)c2=O)nc2c(C(=O)NC3CC[C@@H]3F)cnn12` (stereo partly shown) [Compound I-163], the IC50 was less than 0.1 µM.

As to `CNc1cc(-c2cn([C@@H]3CCOC[C@@H]3OC)c3ncccc23)nc2c(C(=O)N[C@H]3CCC3(F)F)cnn12` [Compound I-703], the IC50 is less than 0.1 µM.
